The values below are quoted from earlier work in US20260335255A1, “PHARMACEUTICAL COMPOSITIONS” (priority 2022, published 2026).

One series deals with patients with depression. Conditions: 0.5 mg/kg; 40 min infusion.
In series [1] the test system is patients. Conditions: for side effects: b8: single subanesthetic dose.
Series [2] has as its system patients. Conditions: anesthetic use; Pediatric Anesthesia 2005 15: 91-97.

In brackets after ≈: the same amount, converted by molar mass. Structures can show the parent of a compound that is named as a salt.

With `CNC1(c2ccccc2Cl)CCCCC1=O` (racemic) [Ketamine], the solubility in water was 200 mg/mL (≈ 841 mM). The “thought disorder and withdrawal-retardation” value in the series with healthy volunteers is “significant levels of thought disorder and withdrawal-retardation”. In addition, the “concentration needed for therapeutic efficacy in patients with depression” value with patients with depression is 185 ng/mL. In addition, in the series with patients [1] (background), the effect on memory entry was “direct effects on free recall and recognition memory”; the side effects entry is “transient dissociation and psychotomimetic side effects and hemodynamic changes”. Also, the depressive symptoms entry with patients [1] (single subanesthetic dose) is “reduces depressive symptoms”.
For `CN[C@]1(c2ccccc2Cl)CCCCC1=O` [S(+) ketamine], the “duration of action compared with racemic ketamine” value in the series on patients [2] is recorded as “significantly shorter acting than racemic ketamine”.
As to `CNC1(c2ccccc2Cl)CCCCC1=O` (centres unmarked) [ketamine hydrochloride, Ketamine Hydrochloride], the side effects result with patients [1] (background) is “blurred vision, double vision, dream-like feeling, dizziness, drowsiness, jerky muscle movements, loss of appetite, nausea, vomiting, sleep problems such as insomnia”.
